From ChEMBL document CHEMBL5523691, “SAR study of N'-(Salicylidene)heteroarenecarbohydrazides as promising antifungal agents” (Bioorg Med Chem, 2024)
Converted amounts (≈) assume the structure as drawn. The source made the active and inactive calls. The rule behind the calls is not given here.

Columns and labels:
[1] = Selectivity index, ratio of LD50 for human A549 cells to MIC80 for Cryptococcus neoformans H99; format: toxicity; details: read-out: Selectivity Index
Cryptococcus neoformans [2] = test: Antifungal activity against wild type Cryptococcus neoformans H99 assessed as inhibition of fungal growth incubated for 24 to 72 hrs by optical density based analysis; format: functional; details: time 24-72 hrs
Cryptococcus neoformans [3] = test: Fungicidal activity against wild type Cryptococcus neoformans H99 assessed as minimum concentration required to kill fungus measured after 72 hrs by time-kill assay; format: functional
[4] = Cytotoxicity against human A549 cells assessed as cell killing measured after 24 to 48 hrs by MTT assay; format: toxicity, cell-based; details: time 24-48 hrs, read-out: LD50 (the source's name)
Cryptococcus neoformans [5] = test: Fungicidal activity against wild type Cryptococcus neoformans H99 assessed as minimum concentration required to kill fungus measured after 96 hrs by time-kill assay; format: functional
Aspergillus fumigatus = test: Antifungal activity against Aspergillus fumigatus assessed as inhibition of fungal growth incubated for 24 to 72 hrs by optical density based analysis; format: functional; details: time 24-72 hrs
Cryptococcus neoformans [6] = test: Antagonistic antifungal activity against wild type Cryptococcus neoformans H99 in presence of amphotericin B; format: functional, organism-based
Cryptococcus neoformans [7] = test: Synergistic antifungal activity against wild type Cryptococcus neoformans H99 assessed as fractional inhibitory concentration index in presence of fluconazole; format: functional
Cryptococcus neoformans [8] = test: Antagonistic antifungal activity against wild type Cryptococcus neoformans H99 in presence of fluconazole; format: functional, organism-based
Candida albicans = test: Antifungal activity against Candida albicans assessed as inhibition of fungal growth incubated for 24 to 72 hrs by optical density based analysis; format: functional; details: time 24-72 hrs
Cryptococcus neoformans [9] = test: Antifungal activity against wild type Cryptococcus neoformans H99 assessed as inhibition of fungal growth in presence of caspofungin; format: functional
Cryptococcus neoformans [10] = test: Antifungal activity against wild type Cryptococcus neoformans H99 assessed as fractional inhibitory concentration index in presence of amphotericin B; format: functional
Cryptococcus neoformans [11] = test: Fungicidal activity against wild type Cryptococcus neoformans H99 assessed as minimum concentration required to kill fungus measured after 24 hrs by time-kill assay; format: functional
Cryptococcus neoformans [12] = test: Antifungal activity against wild type Cryptococcus neoformans H99 assessed as inhibition of fungal growth in presence of amphotericin B; format: functional
Cryptococcus neoformans [13] = test: Synergistic antifungal activity against wild type Cryptococcus neoformans H99 assessed as fractional inhibitory concentration index in presence of caspofungin; format: functional
Cryptococcus neoformans [14] = test: Antagonistic antifungal activity against wild type Cryptococcus neoformans H99 in presence of caspofungin; format: functional, organism-based
Cryptococcus neoformans [15] = test: Antifungal activity against wild type Cryptococcus neoformans H99 assessed as inhibition of fungal growth in presence of fluconazole; format: functional
Cryptococcus neoformans [16] = test: Synergistic antifungal activity against wild type Cryptococcus neoformans H99 assessed as fractional inhibitory concentration index in presence of amphotericin B; format: functional
Cryptococcus neoformans [17] = test: Antifungal activity against wild type Cryptococcus neoformans H99 assessed as fractional inhibitory concentration index in presence of fluconazole; format: functional
Cryptococcus neoformans [18] = test: Fungicidal activity against wild type Cryptococcus neoformans H99 assessed as minimum concentration required to kill fungus measured after 48 hrs by time-kill assay; format: functional

O=C(N/N=C/c1ccc(Br)cc1O)c1ccc(C(F)(F)F)o1
selectivity ratio [1]: 4
MIC80 (Cryptococcus neoformans [2]): 1 µg/mL (≈ 2.65 µM)
MFC100 (Cryptococcus neoformans [3]): 4 µg/mL (≈ 10.6 µM)
CC50 [4]: 4 µg/mL (≈ 10.6 µM)

O=C(N/N=C/c1ccc(Br)cc1O)c1cc(Br)co1
selectivity ratio [1]: 32
MIC80 (Cryptococcus neoformans [2]): 0.5 µg/mL (≈ 1.29 µM)
MFC100 (Cryptococcus neoformans [5]): 2 µg/mL (≈ 5.15 µM)
CC50 [4]: 16 µg/mL (≈ 41.2 µM)

O=C(N/N=C/c1cc(Br)ccc1O)c1ccc(Br)o1
MIC80 (Aspergillus fumigatus): 0.25 µg/mL (≈ 0.644 µM)
Activity (Cryptococcus neoformans [6]): inactive
fractional inhibitory concentration index (FICI) (Cryptococcus neoformans [7]): 0.56
Activity (Cryptococcus neoformans [8]): inactive
selectivity ratio [1]: > 533
MIC80 (Candida albicans): 1 µg/mL (≈ 2.58 µM)
MIC80 (Cryptococcus neoformans [9]): 0.06 µg/mL
fractional inhibitory concentration index (FICI) (Cryptococcus neoformans [10]): 1.12
MIC80 (Cryptococcus neoformans [2]): 0.12 µg/mL (≈ 0.309 µM)
MFC100 (Cryptococcus neoformans [11]): 0.25 µg/mL (≈ 0.644 µM)
MIC80 (Cryptococcus neoformans [12]): 15 ng/mL
fractional inhibitory concentration index (FICI) (Cryptococcus neoformans [13]): 0.75
Activity (Cryptococcus neoformans [14]): inactive
MIC80 (Cryptococcus neoformans [15]): 60 ng/mL
CC50 [4]: > 32 µg/mL

O=C(N/N=C/c1cc(Br)ccc1O)c1csc(Br)c1
MIC80 (Aspergillus fumigatus): 1 µg/mL (≈ 2.47 µM)
Activity (Cryptococcus neoformans [6]): inactive
Activity (Cryptococcus neoformans [8]): inactive
selectivity ratio [1]: > 1070
fractional inhibitory concentration index (FICI) (Cryptococcus neoformans [16]): 0.53
MIC80 (Candida albicans): 0.125 µg/mL (≈ 0.309 µM)
MIC80 (Cryptococcus neoformans [9]): 0.015 µg/mL
MIC80 (Cryptococcus neoformans [2]): 0.014 µg/mL (≈ 0.0346 µM)
MIC80 (Cryptococcus neoformans [12]): 1 ng/mL
fractional inhibitory concentration index (FICI) (Cryptococcus neoformans [13]): 0.14
Activity (Cryptococcus neoformans [14]): inactive
fractional inhibitory concentration index (FICI) (Cryptococcus neoformans [17]): 1.1
MIC80 (Cryptococcus neoformans [15]): 2 ng/mL
MFC100 (Cryptococcus neoformans [18]): 0.06 µg/mL (≈ 0.148 µM)
CC50 [4]: > 32 µg/mL

O=C(N/N=C/c1ccc(Br)cc1O)c1cc(Br)c(Br)s1
MIC80 (Aspergillus fumigatus): 0.06 µg/mL (≈ 0.124 µM)
Activity (Cryptococcus neoformans [6]): inactive
fractional inhibitory concentration index (FICI) (Cryptococcus neoformans [7]): 0.6
Activity (Cryptococcus neoformans [8]): inactive
selectivity ratio [1]: > 533
fractional inhibitory concentration index (FICI) (Cryptococcus neoformans [16]): 0.78
MIC80 (Candida albicans): 0.125 µg/mL (≈ 0.259 µM)
MIC80 (Cryptococcus neoformans [9]): 0.001 µg/mL
MIC80 (Cryptococcus neoformans [2]): 0.002 µg/mL (≈ 0.00414 µM)
MFC100 (Cryptococcus neoformans [11]): 0.5 µg/mL (≈ 1.04 µM)
MIC80 (Cryptococcus neoformans [12]): 1 ng/mL
fractional inhibitory concentration index (FICI) (Cryptococcus neoformans [13]): 0.78
Activity (Cryptococcus neoformans [14]): inactive
MIC80 (Cryptococcus neoformans [15]): 1 ng/mL
CC50 [4]: > 32 µg/mL
